Results reported in US8546321B2, “IL-4-derived peptides for modulation of the chronic inflammatory response and treatment of autoimmune diseases” (Kobenhavns Universitet, priority 2008, dated 2013).
Where two headings read alike, the source gives them in different places.

Assays:
[1] = system: malignancies; conditions: in this dose and schedule (Whitehead et al., 1998); cited from earlier work
[2] = subcutaneous administration, cited from earlier work
[3] = repeated daily dosing; cited from earlier work
[4] = system: psoriasis; conditions: correcting imbalances in immune functions (Martin 2003); cited from earlier work
[5] = system: cerebellar granular neurons (CGN); assay: Neurite outgrowth assay in cultures of cerebellar granule neurons; type: cell-based, Wistar rats; conditions: P7 CGN, peptides added after plating, 24 h
Protocol: Cerebellar granular neurons (CGN) were prepared from 3 or 7 postnatal (P) day Wistar rats (Charles River, Sulzfeld, Germany or Taconic, Ejby, Denmark). Cerebella were cleared of meninges and blood vessels, roughly homogenized by chopping, and trypsinized with trypsin from Sigma-Aldrich (Brøndby, Denmark). The neurons were washed in the presence of DNAse 1 and soybean trypsin inhibitor (Sigma-Aldrich), and cellular debris was pelleted by centrifugation before plating. For single-cell culture experiments, P7 CGNs were plated at a density of 10,000 cells/well onto uncoated eight-well Lab-Tek chamber slides (NUNC, Slangerup, Denmark) in Neurobasal-A medium supplemented with 0.4% (w/v) BSA. Peptides at various concentrations were added to the medium immediately after plating, and cells were maintained at 37° C. and 5% CO2 for 24 h. Cultures then were fixed, blocked and incubated with polyclonal rabbit antibody against rat GAP-43 (Chemicon, Temecula, Calif., USA) followed by incubation with secondary Alexa Fluor488 goat anti-rabbit antibody (Molecular Probes, Eugene, Oreg., USA) as previously described (Neiiendam et al., 2004). The immunostained cultures were all recorded by computer-assisted fluorescence microscopy using a Nikon Diaphot inverted microscope (Nikon, Japan) equipped with a Nikon Plane 20× objective. Images were captured with a charge-coupled device video camera (Grundig Electronics, Nurnberg, Germany) using the software package Prima developed at the Protein Laboratory (University of Copenhagen, Copenhagen, Denmark). The length of neuronal processes per cell was estimated using the software package Process Length developed at the Protein Laboratory (Ronn et al. 2000). For estimation of neurite outgrowth, at least 200±20 cells were processed for each group in each individual experiment.

## rhulL-4: Escherichia coli-derived recombinant human interleukin-4
[1]
  antitumor activity: only low antitumor activity
[2]; as high as 10 μg/kg administered 3 times/week
  safety and tolerability: safe and well tolerated
[2]; doses as high as 5 μg/kg/day
  safety and tolerability: safe and well tolerated
[3]
  adverse effects: a number of adverse effects
[4]
  benefit in patients with psoriasis: beneficial

## AERLKTIMREKYSKS (Variant of fragment of interleukin-4) [SEQ ID NO: 4]
[5]
  neuritogenic response from primary neurons: induce a neuritogenic response

## AITLQEIIKTLNSA (Variant of fragment of interleukin-4) [SEQ ID NO: 2]
[5]
  neuritogenic response from primary neurons: induce a neuritogenic response

## AQFHRHKQLIRFLKRA (Variant of fragment of interleukin-4) [SEQ ID NO: 1]
[5]
  neuritogenic response from primary neurons: induce a neuritogenic response

## ARFLKRLDRNLWGG (Variant of fragment of interleukin-4) [SEQ ID NO: 3]
[5]
  neuritogenic response from primary neurons: induce a neuritogenic response
